Patent US20120270237A9, “METHODS FOR THE IDENTIFICATION OF KINASE INTERACTING MOLECULES AND FOR THE PURIFICATION OF KINASE PROTEINS” (Cellzone AG, priority 2009, published 2012)

Legend:
MAP3K1 = MAP3K1 (Homo sapiens, UniProt Q13233); assay: Kinobeads competition binding, L-363 cell lysate; parameters: endogenous in cells; host or cells: L-363 cells (DSMZ ACC49), treated with MG132 before harvest; details: 10 μM free compound, L-363 lysate
Method: (§1) To one aliquot of cell lysate 10 μM of the free compound (FIG. 3, CZC31326) was added and allowed to bind to proteins in the lysate. Then the affinity matrix with the immobilized compound was added to capture proteins that were not interacting with the previously added free compound. Beads were separated from the lysate and bead bound proteins were eluted in SDS sample buffer and subsequently separated by SDS-Polyacrylamide gel electrophoresis (FIG. 8). Suitable gel bands were cut out and subjected to in-gel proteolytic digestion with trypsin. The second lysate aliquot was processed identically, however no free compound was added (DMSO solvent control). Peptides originating from samples 1 and 2 were labeled with iTRAQ reagents (iTRAQ 114 and iTRAQ 117) and the combined samples were analyzed with a nano-flow liquid chromatography system coupled online to a tandem mass spectrometer (LC-MS/MS) experiment followed by iTRAQ reporter ion quantification in the MS/MS spectra as described in Example 2.
(§2) For this experiment the human plasma cell leukaemia line L-363 was used (German Collection of Microorganisms and Cell Cultures, DSMZ number ACC49, Braunschweig, Germany). Cells were treated for three hours with 20 μM of the proteasome inhibitor MG132 (Z-Leu-Leu-Leu-al, Sigma C2211) prior to cell harvesting.

MAP3K3 = MAP3K3 (Homo sapiens, UniProt Q99759); assay: Kinobeads competition binding, L-363 cell lysate; parameters: endogenous in cells; host or cells: L-363 cells (DSMZ ACC49), treated with MG132 before harvest; details: 10 μM free compound, L-363 lysate
MAP3K3, sequence (Q99759 whole entry): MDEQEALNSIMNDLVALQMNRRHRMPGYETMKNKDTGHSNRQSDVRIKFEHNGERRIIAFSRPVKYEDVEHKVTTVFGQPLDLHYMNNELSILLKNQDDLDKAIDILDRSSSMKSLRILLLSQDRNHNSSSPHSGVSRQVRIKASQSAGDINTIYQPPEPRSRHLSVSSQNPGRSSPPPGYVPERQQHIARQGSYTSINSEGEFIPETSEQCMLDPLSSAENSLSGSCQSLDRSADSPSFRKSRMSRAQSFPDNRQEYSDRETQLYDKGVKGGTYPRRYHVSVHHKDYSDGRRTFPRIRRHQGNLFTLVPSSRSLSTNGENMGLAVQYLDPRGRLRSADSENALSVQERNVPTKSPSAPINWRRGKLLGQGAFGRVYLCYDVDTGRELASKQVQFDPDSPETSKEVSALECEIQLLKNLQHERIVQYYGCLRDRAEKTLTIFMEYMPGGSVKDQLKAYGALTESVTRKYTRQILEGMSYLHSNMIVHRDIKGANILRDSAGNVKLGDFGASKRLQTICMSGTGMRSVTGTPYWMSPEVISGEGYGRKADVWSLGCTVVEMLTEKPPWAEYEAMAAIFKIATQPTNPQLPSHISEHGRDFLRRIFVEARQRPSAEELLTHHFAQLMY
Method: as §1, §2

TGFbR1 = TGFbR1 (Homo sapiens, UniProt P36897); assay: Kinobeads competition binding, HeLa Placenta lysate mix; parameters: kinases from mixed HeLa placenta lysates; endogenous in cells; host or cells: mixed lysate of HeLa cells and placenta tissue; details: 10 μM free compound
TGFbR1, sequence (P36897 34-503): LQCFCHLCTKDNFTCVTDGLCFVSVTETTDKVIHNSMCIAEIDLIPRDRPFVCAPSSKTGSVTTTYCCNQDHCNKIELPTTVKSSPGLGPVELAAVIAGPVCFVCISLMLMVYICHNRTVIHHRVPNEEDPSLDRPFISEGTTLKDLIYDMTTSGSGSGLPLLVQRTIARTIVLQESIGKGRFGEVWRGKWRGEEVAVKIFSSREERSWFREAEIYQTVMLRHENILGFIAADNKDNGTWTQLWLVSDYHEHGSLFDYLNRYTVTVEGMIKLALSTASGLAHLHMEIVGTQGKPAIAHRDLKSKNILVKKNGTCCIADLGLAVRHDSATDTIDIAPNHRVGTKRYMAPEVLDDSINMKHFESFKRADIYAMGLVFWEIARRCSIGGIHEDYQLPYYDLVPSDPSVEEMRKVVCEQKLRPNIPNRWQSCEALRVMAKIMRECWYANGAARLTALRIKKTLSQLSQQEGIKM
Method: as §1, with “10).” for “8).”

ULK3 = target: T1, ULK3 (Homo sapiens, UniProt Q6PHR2); assay: as above; parameters: kinases from mixed HeLa placenta lysates; endogenous in cells; host or cells: mixed lysate of HeLa cells and placenta tissue; details: 10 μM free compound
T1 sequence (Q6PHR2 1-472): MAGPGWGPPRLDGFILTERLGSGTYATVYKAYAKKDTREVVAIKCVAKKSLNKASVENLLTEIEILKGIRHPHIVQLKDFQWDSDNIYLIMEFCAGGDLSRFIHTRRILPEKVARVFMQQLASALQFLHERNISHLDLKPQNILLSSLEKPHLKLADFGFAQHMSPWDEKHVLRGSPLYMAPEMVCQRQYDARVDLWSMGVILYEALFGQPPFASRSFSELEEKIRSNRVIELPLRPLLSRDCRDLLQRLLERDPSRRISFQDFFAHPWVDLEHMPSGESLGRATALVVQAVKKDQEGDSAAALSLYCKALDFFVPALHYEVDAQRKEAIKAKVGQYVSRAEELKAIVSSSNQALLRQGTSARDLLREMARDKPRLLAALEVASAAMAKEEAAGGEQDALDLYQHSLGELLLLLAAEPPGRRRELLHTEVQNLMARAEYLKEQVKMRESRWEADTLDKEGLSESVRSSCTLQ
Method: as §1, with “10).” for “8).”

TEC = target: T2, TEC (Homo sapiens, UniProt P42680); assay: as above; parameters: kinases from mixed HeLa placenta lysates; endogenous in cells; host or cells: mixed lysate of HeLa cells and placenta tissue; details: 10 μM free compound
T2 sequence (P42680 1-631): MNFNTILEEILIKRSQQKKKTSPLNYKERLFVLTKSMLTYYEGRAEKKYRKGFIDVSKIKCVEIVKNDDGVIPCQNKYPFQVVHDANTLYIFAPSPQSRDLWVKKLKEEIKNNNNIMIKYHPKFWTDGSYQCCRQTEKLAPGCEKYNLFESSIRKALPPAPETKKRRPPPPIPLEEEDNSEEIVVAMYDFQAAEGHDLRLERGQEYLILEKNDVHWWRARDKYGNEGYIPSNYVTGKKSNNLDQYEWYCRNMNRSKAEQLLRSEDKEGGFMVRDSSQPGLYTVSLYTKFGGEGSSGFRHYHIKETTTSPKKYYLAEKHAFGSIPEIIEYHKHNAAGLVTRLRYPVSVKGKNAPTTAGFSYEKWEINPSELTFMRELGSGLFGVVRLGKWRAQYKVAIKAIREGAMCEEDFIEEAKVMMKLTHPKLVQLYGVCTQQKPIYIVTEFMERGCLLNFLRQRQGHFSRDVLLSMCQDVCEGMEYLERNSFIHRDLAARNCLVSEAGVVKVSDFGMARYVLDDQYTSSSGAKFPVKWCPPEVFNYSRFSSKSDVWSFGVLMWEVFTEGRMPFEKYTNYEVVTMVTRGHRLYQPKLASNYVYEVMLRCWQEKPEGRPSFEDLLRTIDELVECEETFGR
Method: as §1, with “10).” for “8).”

Wee1 = Wee1 (Homo sapiens, UniProt P30291); assay: as above; parameters: kinases from mixed HeLa placenta lysates; endogenous in cells; host or cells: mixed lysate of HeLa cells and placenta tissue; details: 10 μM free compound
Wee1, sequence (P30291 whole entry): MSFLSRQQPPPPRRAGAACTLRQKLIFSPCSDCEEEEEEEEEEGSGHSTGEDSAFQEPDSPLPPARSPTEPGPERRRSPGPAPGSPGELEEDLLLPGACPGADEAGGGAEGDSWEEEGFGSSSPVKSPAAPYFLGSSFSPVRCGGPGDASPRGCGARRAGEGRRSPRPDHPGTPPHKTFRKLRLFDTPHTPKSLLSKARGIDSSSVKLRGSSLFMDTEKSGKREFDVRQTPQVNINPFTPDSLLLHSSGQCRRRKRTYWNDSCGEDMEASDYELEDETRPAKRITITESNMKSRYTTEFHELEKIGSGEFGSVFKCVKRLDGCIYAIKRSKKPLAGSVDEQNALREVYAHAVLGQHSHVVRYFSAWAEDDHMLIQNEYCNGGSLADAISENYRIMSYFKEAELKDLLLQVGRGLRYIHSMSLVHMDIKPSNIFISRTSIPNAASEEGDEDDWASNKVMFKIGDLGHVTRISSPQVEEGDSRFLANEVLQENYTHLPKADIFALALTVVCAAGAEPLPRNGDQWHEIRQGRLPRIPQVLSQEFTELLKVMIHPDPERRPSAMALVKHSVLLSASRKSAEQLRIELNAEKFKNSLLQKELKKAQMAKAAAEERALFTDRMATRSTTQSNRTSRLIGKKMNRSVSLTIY
Method: as §1, with “10).” for “8).”

YES = YES (Homo sapiens, UniProt P07947); assay: as above; parameters: kinases from mixed HeLa placenta lysates; endogenous in cells; host or cells: mixed lysate of HeLa cells and placenta tissue; details: 10 μM free compound
YES, sequence (P07947 whole entry): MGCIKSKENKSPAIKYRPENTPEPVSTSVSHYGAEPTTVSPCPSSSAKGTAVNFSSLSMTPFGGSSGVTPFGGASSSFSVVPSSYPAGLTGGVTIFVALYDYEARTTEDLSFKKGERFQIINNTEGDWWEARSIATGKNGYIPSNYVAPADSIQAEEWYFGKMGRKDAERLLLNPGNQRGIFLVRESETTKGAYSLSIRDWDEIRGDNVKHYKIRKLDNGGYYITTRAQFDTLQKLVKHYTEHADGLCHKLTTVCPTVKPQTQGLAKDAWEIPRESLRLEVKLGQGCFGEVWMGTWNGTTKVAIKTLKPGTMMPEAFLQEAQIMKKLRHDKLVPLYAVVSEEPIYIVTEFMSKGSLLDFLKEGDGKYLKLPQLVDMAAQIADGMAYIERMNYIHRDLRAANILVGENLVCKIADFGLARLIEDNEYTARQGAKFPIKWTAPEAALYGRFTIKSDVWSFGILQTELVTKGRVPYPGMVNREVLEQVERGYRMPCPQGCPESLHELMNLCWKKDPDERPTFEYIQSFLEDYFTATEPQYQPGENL
Method: as §1, with “10).” for “8).”

MAP3K1, sequence (Q13233 whole entry): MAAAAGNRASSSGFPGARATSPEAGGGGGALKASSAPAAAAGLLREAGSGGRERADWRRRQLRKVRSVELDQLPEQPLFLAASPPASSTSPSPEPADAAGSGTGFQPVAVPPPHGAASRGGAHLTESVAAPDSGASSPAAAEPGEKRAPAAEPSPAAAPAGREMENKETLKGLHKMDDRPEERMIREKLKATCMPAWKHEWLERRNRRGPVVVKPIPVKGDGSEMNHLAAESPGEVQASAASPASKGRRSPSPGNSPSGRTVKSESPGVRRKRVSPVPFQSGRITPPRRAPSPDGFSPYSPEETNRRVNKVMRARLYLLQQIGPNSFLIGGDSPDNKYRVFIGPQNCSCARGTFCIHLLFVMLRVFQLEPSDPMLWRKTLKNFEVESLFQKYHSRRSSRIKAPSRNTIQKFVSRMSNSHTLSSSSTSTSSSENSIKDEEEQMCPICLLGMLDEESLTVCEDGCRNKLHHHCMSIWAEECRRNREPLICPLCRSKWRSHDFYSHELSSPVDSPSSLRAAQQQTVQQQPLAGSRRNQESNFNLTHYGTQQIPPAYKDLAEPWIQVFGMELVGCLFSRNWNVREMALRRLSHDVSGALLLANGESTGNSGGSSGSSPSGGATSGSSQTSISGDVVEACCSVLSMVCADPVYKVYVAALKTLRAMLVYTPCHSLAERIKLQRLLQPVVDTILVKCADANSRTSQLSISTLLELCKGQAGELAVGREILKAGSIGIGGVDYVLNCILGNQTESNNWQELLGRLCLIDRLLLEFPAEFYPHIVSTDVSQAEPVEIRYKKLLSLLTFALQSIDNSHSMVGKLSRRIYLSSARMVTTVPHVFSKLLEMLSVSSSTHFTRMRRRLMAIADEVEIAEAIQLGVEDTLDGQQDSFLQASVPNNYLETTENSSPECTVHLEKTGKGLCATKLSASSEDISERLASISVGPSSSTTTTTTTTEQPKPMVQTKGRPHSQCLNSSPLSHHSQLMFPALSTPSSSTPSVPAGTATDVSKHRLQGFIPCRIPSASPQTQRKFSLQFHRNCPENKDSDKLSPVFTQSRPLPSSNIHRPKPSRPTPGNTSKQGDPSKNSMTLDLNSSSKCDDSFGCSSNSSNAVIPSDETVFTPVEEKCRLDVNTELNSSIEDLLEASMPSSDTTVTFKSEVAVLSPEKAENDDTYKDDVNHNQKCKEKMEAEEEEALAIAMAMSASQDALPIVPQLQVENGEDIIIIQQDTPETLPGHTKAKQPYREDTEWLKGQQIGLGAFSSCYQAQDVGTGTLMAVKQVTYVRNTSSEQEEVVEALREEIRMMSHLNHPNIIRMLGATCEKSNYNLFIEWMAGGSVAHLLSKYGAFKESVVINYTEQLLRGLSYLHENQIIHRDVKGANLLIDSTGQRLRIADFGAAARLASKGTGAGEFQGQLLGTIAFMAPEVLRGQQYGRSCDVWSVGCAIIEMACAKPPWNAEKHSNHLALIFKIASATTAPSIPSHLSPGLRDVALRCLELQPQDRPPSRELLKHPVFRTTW

inhibition at 10 µM (MAP3K1): 96.2%
inhibition at 10 µM (MAP3K3): 97.4%
inhibition at 10 µM (TGFbR1): 90.8%
Competition % (ULK3): 94.6%
inhibition at 10 µM (TEC): 89.2%
inhibition at 10 µM (Wee1): 95.2%
inhibition at 10 µM (YES): 90.3%
Structure (SMILES): CS(=O)(=O)Nc1ccccc1Nc1nc(Nc2cccc(OCCN)c2)ncc1Cl [CZC31326, N-(2-(2-(3-(2-aminoethoxy)phenylamino)-5-chloropyrimidin-4-ylamino)phenyl)methanesulfonamide]
